According to PMC3131501 (Journal of molecular biology, 2011):

Columns and labels:
wild type (wt) BA2930 = wild type (wt) BA2930 (Bacillus anthracis, UniProt A0A3P1UCA6); format: binding
BA2930 = format: biochemical, Bacillus anthracis str. Ames; conditions: pH 7.5

wild type (wt) BA2930, sequence (A0A3P1UCA6 1-265): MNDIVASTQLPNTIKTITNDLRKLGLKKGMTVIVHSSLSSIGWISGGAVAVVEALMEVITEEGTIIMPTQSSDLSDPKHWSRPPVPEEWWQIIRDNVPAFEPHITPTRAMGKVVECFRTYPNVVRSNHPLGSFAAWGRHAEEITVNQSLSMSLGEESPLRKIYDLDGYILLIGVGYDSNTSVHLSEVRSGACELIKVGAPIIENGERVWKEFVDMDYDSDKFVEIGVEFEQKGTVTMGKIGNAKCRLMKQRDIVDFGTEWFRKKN

| SMILES | N (stoichiometry) (wild type (wt) BA2930) | ΔH (wild type (wt) BA2930) [kcal/mol] | −TΔS (wild type (wt) BA2930) [kcal/mol] | Kd (wild type (wt) BA2930; pH 7.5) [µM] | chemical modification by the enzyme (TLC) (BA2930) |
| --- | --- | --- | --- | --- | --- |
| CC(=O)SCCNC(=O)CCNC(=O)[C@H](O)C(C)(C)COP(=O)(O)OP(=O)(O)OC[C@H]1O[C@@H](n2cnc3c(N)ncnc32)[C@H](O)[C@@H]1OP(=O)(O)O [AcCoA, Acetyl Coenzyme A] | 1.140±0.013 | -21.71 ± 0.46 | -15.61 | 33.4 ± 2.53 | – |
| NCC[C@H](O)C(=O)N[C@@H]1C[C@H](N)[C@@H](O[C@H]2O[C@H](CN)[C@@H](O)[C@H](O)[C@H]2O)[C@H](O)[C@H]1O[C@H]1O[C@H](CO)[C@@H](O)[C@H](N)[C@H]1O [Amikacin] | – | – | – | – | modified by the enzyme |
| CC(C)(COP(=O)(O)OP(=O)(O)OC[C@H]1O[C@@H](n2cnc3c(N)ncnc32)[C@H](O)[C@@H]1OP(=O)(O)O)[C@@H](O)C(=O)NCCC(=O)NCCS [CoA, Coenzyme A] | 1.000±0.031 | -12.47 ± 0.53 | -5.36 | – | – |
| NC[C@H]1O[C@H](O[C@H]2[C@H](O)[C@@H](O[C@H]3O[C@H](CO)[C@@H](O)[C@H](N)[C@H]3O)[C@H](N)C[C@@H]2N)[C@H](O)[C@@H](O)[C@@H]1O [kanamycin] | – | – | – | – | modified by the enzyme |
| NC[C@H]1O[C@H](O[C@H]2[C@H](O)[C@@H](O[C@H]3O[C@H](CO)[C@@H](O)[C@H](N)[C@H]3O)[C@H](N)C[C@@H]2N)[C@H](N)C[C@@H]1O [tobramycin] | – | – | – | – | modified by the enzyme |
